In patent US20080269233A1, “Piperidinoyl-Pyrrolidine and Piperidinoyl-Piperidine Compounds” (priority 2006, published 2008):

How the values were obtained:
MC4 receptor = MC4 receptor (Homo sapiens, UniProt P32245); assay: MC4 receptor functional potency (EC50), Protocol E of WO 2005/077935; assay type: cell-based; conditions: read-out: functional potency at the MC4 receptor expressed as an EC50
Description: MC5 and MC4 activity was determined as described by assay protocols D and E, respectively, in US2005/0176772 (pages 28-30).

[1] = test system: men with psychogenic and organic ED; conditions: cited from earlier work

Chain of MC4 receptor (P32245 whole entry): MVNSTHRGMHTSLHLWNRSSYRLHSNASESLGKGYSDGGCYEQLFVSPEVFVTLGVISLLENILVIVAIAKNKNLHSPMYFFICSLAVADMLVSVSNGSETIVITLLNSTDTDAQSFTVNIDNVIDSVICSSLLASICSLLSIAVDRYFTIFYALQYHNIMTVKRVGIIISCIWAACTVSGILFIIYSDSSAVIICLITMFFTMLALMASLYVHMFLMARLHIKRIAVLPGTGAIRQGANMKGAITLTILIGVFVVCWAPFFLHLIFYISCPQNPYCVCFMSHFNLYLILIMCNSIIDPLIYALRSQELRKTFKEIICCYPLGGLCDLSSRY

Molecule	EC50 (MC4 receptor)	increased sexual desire reported (share of doses) ([1]; 13/19 doses, questionnaire, P<0.01 vs placebo)	subjects with severe nausea ([1]; dose of 0.025 mg/kg)	penile erection (number of men) ([1]; in the absence of sexual stimulation, men with psychogenic and organic ED)	mean duration of Rigiscan tip rigidity >80% ([1]; penile rigidity monitored for 6 hours using RigiScan)
CO[C@H]1CN(C(=O)[C@@H]2CN(c3cccnn3)C[C@H]2c2ccc(F)cc2F)CC[C@]1(OC)c1ccccc1 [Example 8, 3-[(3R,4S)-3-(2,4-difluorophenyl)-4-{[(3S,4S)-3,4-dimethoxy-4-phenylpiperidin-1-yl]carbonyl}pyrrolidin-1-yl]pyridazine]	1.5 nM	–	–	–	–
CCO[C@@H]1CN(C(=O)[C@@H]2CN(c3cccnn3)C[C@H]2c2ccc(F)cc2F)CC[C@@]1(O)c1ccccc1 [Example 13, (3R,4R)-1-{[(3S,4R)-4-(2,4-difluorophenyl)-1-pyridazin-3-ylpyrrolidin-3-yl]carbonyl}-3-ethoxy-4-phenylpiperidin-4-ol]	44 nM	–	–	–	–
CO[C@H]1CN(C(=O)[C@@H]2CN(c3cccnn3)C[C@H]2c2ccc(F)cc2F)CC[C@]1(OC)c1ccc(F)cc1 [Example 15, 3-[(3R,4S)-3-(2,4-difluorophenyl)-4-{[(3S,4S)-4-(4-fluorophenyl)-3,4-dimethoxypiperidin-1-yl]carbonyl}pyrrolidin-1-yl]pyridazine]	11.5 nM	–	–	–	–
Melanotan II	–	68%	12.9%	17 of 20	41 min
